This passage reports IC50 results from patent publication US11708359B2, “Monoacylglycerol lipase modulators” (Janssen Pharmaceutica NV, priority 2020, dated 2023).

The experiment addresses human MGL from HeLa cells (Homo sapiens (Human), UniProt Q99685). Kind of experiment: MGL in vitro activity assay ([glycerol-1,3-3H]-oleoyl glycerol cleavage, activated carbon filter). The format is biochemical. The conditions noted are these: 300 nM [Glycerol-1,3-3H]-oleoyl glycerol, endogenously expressed MGL from HeLa cells, one hour incubation; read-out: MGL IC50. On the procedure: The assay consists of combining endogenously expressed MGL from HeLa cells with test compounds, adding[glycerol-1,3-^3H]-oleoyl glycerol, incubating for one hour, and then measuring the amount of cleaved[1,3-^3H]-glycerol that passes through an activated carbon filter. The amount of cleaved, tritiated glycerol passing through the carbon filter is proportional to the activity of the MGL enzyme in a particular well/test condition.
Standard conditions for this assay combine 300 nM [Glycerol-1,3-^3H]-oleoyl glycerol with human MGL from HeLa cells and test compounds for one hour, after which the reaction is filtered through activated carbon and tritium is measured in the flow through. […] MGL is the predominant hydrolase in HeLa cells/cell homogenates.

Sequence of human MGL from HeLa cells (Q99685 whole entry): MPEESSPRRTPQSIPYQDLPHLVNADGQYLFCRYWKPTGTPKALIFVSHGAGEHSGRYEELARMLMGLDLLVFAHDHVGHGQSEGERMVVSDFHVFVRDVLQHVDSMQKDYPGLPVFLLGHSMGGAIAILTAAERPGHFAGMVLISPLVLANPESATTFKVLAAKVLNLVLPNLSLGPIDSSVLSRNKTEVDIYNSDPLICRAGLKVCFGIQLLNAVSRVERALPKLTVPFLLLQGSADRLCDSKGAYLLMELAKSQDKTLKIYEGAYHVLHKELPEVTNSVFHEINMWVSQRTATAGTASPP

Regarding `O=C1N[C@]2(CO1)C[C@H](C(=O)N1CC3CC3(c3ccccc3)C1)C2` (mixture of isomers) [Example 4, (rac)-(2s,4s)-2-(1-Phenyl-3-azabicyclo[3.1.0]hexane-3-carbonyl)-7-oxa-5-azaspiro[3.4]octan-6-one], the IC50 turned out to be 49 nM.

In the case of `CC(C)c1cccc(C23CC2CN(C(=O)[C@H]2C[C@]4(COC(=O)N4)C2)C3)c1` (mixture of isomers) [Example 6, (rac)-(2s,4s)-2-(1-(3-Isopropylphenyl)-3-azabicyclo[3.1.0]hexane-3-carbonyl)-7-oxa-5-azaspiro[3.4]octan-6-one], the IC50 turned out to be 6.9 nM. Regarding `CC(C)c1ccc(C23CC2CN(C(=O)[C@H]2C[C@]4(COC(=O)N4)C2)C3)cc1` (mixture of isomers) [Example 9, (rac)-(2s,4s)-2-(1-(4-Isopropylphenyl)-3-azabicyclo[3.1.0]hexane-3-carbonyl)-7-oxa-5-azaspiro[3.4]octan-6-one], the 50% inhibitory concentration (IC50) came out at 2.2 nM. As for `CC(C)c1ccc(C23CC2CN(C(=O)[C@H]2C[C@]4(CCC(=O)N4)C2)C3)cc1` (mixture of isomers) [Example 12, (rac)-(2r,4s)-2-(1-(4-Isopropylphenyl)-3-azabicyclo[3.1.0]hexane-3-carbonyl)-5-azaspiro[3.4]octan-6-one], the figure is 14 nM; as for `CC(C)(C)c1ccc(C23CC2CN(C(=O)[C@H]2C[C@]4(CCC(=O)N4)C2)C3)cc1` (mixture of isomers) [Example 13, (rac)-(2r,4s)-2-(1-(4-(tert-Butyl)phenyl)-3-azabicyclo[3.1.0]hexane-3-carbonyl)-5-azaspiro[3.4]octan-6-one], 9.2 nM; as for `O=C1N[C@]2(CO1)C[C@H](C(=O)N1CC3CC3(c3cccc(C4CC4)c3)C1)C2` (mixture of isomers) [Example 16, (rac)-(2s,4s)-2-(1-(3-Cyclopropylphenyl)-3-azabicyclo[3.1.0]hexane-3-carbonyl)-7-oxa-5-azaspiro[3.4]octan-6-one], 5.6 nM.

As for `O=C1N[C@]2(CO1)C[C@H](C(=O)N1CC3CC3(c3ccc(C4CC4)cc3)C1)C2` (mixture of isomers) [Example 18, (rac)-(2s,4s)-2-(1-(4-Cyclopropylphenyl)-3-azabicyclo[3.1.0]hexane-3-carbonyl)-7-oxa-5-azaspiro[3.4]octan-6-one], the half-maximal inhibitory concentration (IC50) worked out at 4.4 nM.

`O=C1N[C@]2(CO1)C[C@H](C(=O)N1CC3CC3(c3cccc(OC(F)(F)F)c3)C1)C2` (mixture of isomers) [Example 19, (rac)-(2s,4s)-2-(1-(3-(Trifluoromethoxy)phenyl)-3-azabicyclo[3.1.0]hexane-3-carbonyl)-7-oxa-5-azaspiro[3.4]octan-6-one]: the 50% inhibitory concentration (IC50) came to 11 nM. The value for `Cc1ccccc1C12CC1CN(C(=O)[C@H]1C[C@]3(COC(=O)N3)C1)C2` (mixture of isomers) [Example 20, (rac)-(2s,4s)-2-(1-(o-Tolyl)-3-azabicyclo[3.1.0]hexane-3-carbonyl)-7-oxa-5-azaspiro[3.4]octan-6-one] was 6.5 nM; that for `Cc1cccc(C23CC2CN(C(=O)[C@H]2C[C@]4(COC(=O)N4)C2)C3)c1` (mixture of isomers) [Example 21, (rac)-(2s,4s)-2-(1-(m-Tolyl)-3-azabicyclo[3.1.0]hexane-3-carbonyl)-7-oxa-5-azaspiro[3.4]octan-6-one] was 14 nM. As for `O=C1N[C@]2(CO1)C[C@H](C(=O)N1CC3CC3(c3ccc(OC(F)(F)F)cc3)C1)C2` (mixture of isomers) [Example 22, (rac)-(2s,4s)-2-(1-(4-(Trifluoromethoxy)phenyl)-3-azabicyclo[3.1.0]hexane-3-carbonyl)-7-oxa-5-azaspiro[3.4]octan-6-one], the figure is 16 nM. Regarding `O=C1N[C@]2(CO1)C[C@H](C(=O)N1CC3CC3(c3cccc(C(F)(F)F)c3)C1)C2` (mixture of isomers) [Example 23, (rac)-(2s,4s)-2-(1-(3-(Trifluoromethyl)phenyl)-3-azabicyclo[3.1.0]hexane-3-carbonyl)-7-oxa-5-azaspiro[3.4]octan-6-one], the IC50 is 14 nM.

Turning to `O=C1N[C@]2(CO1)C[C@H](C(=O)N1CC3CC3(c3ccc(C(F)(F)F)cc3)C1)C2` (mixture of isomers) [Example 24, (rac)-(2s,4s)-2-(1-(4-(Trifluoromethyl)phenyl)-3-azabicyclo[3.1.0]hexane-3-carbonyl)-7-oxa-5-azaspiro[3.4]octan-6-one], the IC50 stood at 15 nM.

`Cc1ccc(C23CC2CN(C(=O)[C@H]2C[C@]4(COC(=O)N4)C2)C3)cc1C(F)(F)F` (mixture of isomers) [Example 25, (rac)-(2s,4s)-2-(1-(4-Methyl-3-(trifluoromethyl)phenyl)-3-azabicyclo[3.1.0]hexane-3-carbonyl)-7-oxa-5-azaspiro[3.4]octan-6-one]: the IC50 was 3.6 nM. Take `CC1(c2ccc(C34CC3CN(C(=O)[C@H]3C[C@]5(CCC(=O)N5)C3)C4)cc2)CC1` (mixture of isomers) [Example 27, (rac)-(2r,4s)-2-(1-(4-(1-Methylcyclopropyl)phenyl)-3-azabicyclo[3.1.0]hexane-3-carbonyl)-5-azaspiro[3.4]octan-6-one]: the concentration for half-maximal inhibition (IC50) was 9.5 nM.

For `O=C1N[C@]2(CO1)C[C@H](C(=O)N1CC3CC3(c3ccc(Oc4ccccc4)cc3)C1)C2` (mixture of isomers) [Example 28, (rac)-(2s,4s)-2-(1-(4-Phenoxyphenyl)-3-azabicyclo[3.1.0]hexane-3-carbonyl)-7-oxa-5-azaspiro[3.4]octan-6-one], the IC50 is 1.7 nM. As for `O=C1N[C@]2(CO1)C[C@H](C(=O)N1CC3CC3(c3cccc(Oc4ccccc4)c3)C1)C2` (mixture of isomers) [Example 29, (rac)-(2s,4s)-2-(1-(3-Phenoxyphenyl)-3-azabicyclo[3.1.0]hexane-3-carbonyl)-7-oxa-5-azaspiro[3.4]octan-6-one], the figure is 1.5 nM; as for `Cc1ccc(C23CC2CN(C(=O)[C@H]2C[C@]4(COC(=O)N4)C2)C3)cc1Cl` (mixture of isomers) [Example 30, (rac)-(2s,4s)-2-(1-(3-Chloro-4-methylphenyl)-3-azabicyclo[3.1.0]hexane-3-carbonyl)-7-oxa-5-azaspiro[3.4]octan-6-one], 2.9 nM; as for `CC1(c2cccc(C34CC3CN(C(=O)[C@H]3C[C@]5(COC(=O)N5)C3)C4)c2)CC1` (mixture of isomers) [Example 31, (rac)-(2s,4s)-2-(1-(3-(1-Methylcyclopropyl)phenyl)-3-azabicyclo[3.1.0]hexane-3-carbonyl)-7-oxa-5-azaspiro[3.4]octan-6-one], 1.1 nM. For `Cc1cc(C(F)(F)F)ccc1C12CC1CN(C(=O)[C@H]1C[C@]3(COC(=O)N3)C1)C2` (mixture of isomers) [Example 33, (rac)-(2s,4s)-2-(1-(2-Methyl-4-(trifluoromethyl)phenyl)-3-azabicyclo[3.1.0]hexane-3-carbonyl)-7-oxa-5-azaspiro[3.4]octan-6-one], the IC50 is 2.5 nM. As for `Cc1cc(OC(F)(F)F)ccc1C12CC1CN(C(=O)[C@H]1C[C@]3(COC(=O)N3)C1)C2` (mixture of isomers) [Example 34, (rac)-(2s,4s)-2-(1-(2-Methyl-4-(trifluoromethoxy)phenyl)-3-azabicyclo[3.1.0]hexane-3-carbonyl)-7-oxa-5-azaspiro[3.4]octan-6-one], the figure is 3.1 nM; as for `Cc1cc(C23CC2CN(C(=O)[C@H]2C[C@]4(COC(=O)N4)C2)C3)ccc1OC(F)(F)F` (mixture of isomers) [Example 35, (rac)-(2s,4s)-2-(1-(3-Methyl-4-(trifluoromethoxy)phenyl)-3-azabicyclo[3.1.0]hexane-3-carbonyl)-7-oxa-5-azaspiro[3.4]octan-6-one], 6.5 nM.
